The target of the first assay is T1, rhJAK3 (Homo sapiens, UniProt P52333).
T1 construct: recombinant purified GST-tagged catalytic domain for each enzyme; purchased Invitrogen PV3855
T1 sequence (P52333 822-1111 limits assumed): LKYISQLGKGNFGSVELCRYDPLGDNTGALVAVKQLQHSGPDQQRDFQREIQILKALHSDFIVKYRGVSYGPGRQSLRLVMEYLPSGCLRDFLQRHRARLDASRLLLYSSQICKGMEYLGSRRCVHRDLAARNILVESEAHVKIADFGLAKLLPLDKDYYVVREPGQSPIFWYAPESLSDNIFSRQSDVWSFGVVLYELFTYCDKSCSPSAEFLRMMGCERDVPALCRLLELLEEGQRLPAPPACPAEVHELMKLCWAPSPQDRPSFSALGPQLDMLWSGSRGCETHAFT
Briefly: JAK Biochemical HTRF Assay (JAK3). To be noted: recombinant purified GST-tagged catalytic domain, HTRF format, [ATP] 1.7 μM; read-out: JAK3 IC50. Background: In TR-FRET formats the signal depends on donor and acceptor labels being close together.
Turning to `C[C@@H](Nc1cncc(-c2c[nH]c3ncc(CN4CCC(F)C4)cc23)n1)C(=O)NCC(F)(F)F` (stereo partly drawn) [Example 15-8, N^2-(6-{5-[(3-fluoropyrrolidin-1-yl)-methyl]-1H-pyrrolo[2,3-b]pyridin-3-yl}-pyrazin-2-yl)-N-(2,2,2-trifluoroethyl)-D-alaninamide], the IC50 (usually the concentration needed to halve the response being measured) lay within 10 to 100 nM.
Regarding `CC(C)(Nc1cncc(-c2c[nH]c3ncc(C4CC4)cc23)n1)C(=O)NCC(F)(F)F` [Example 15-21, N2-[6-(5-cyclopropyl-1H-pyrrolo[2,3-b]pyridin-3-yl)pyrazin-2-yl]-2-methyl-N-(2,2,2-trifluoroethyl)alaninamide], the IC50 is at most 1 nM.
With `C[C@@H](Nc1cncc(-c2c[nH]c3ncc(-c4ccc(C(O)C(F)(F)F)cc4)cc23)n1)C(=O)NCC(F)(F)F` (stereo partly drawn) [Example 15-3, N-(2,2,2-trifluoroethyl)-N^2-(6-{5-[4-(2,2,2-trifluoro-1-hydroxyethyl)phenyl]-1H-pyrrolo[2,3-b]pyridin-3-yl}pyrazin-2-yl)-D-alaninamide], the IC50 is at most 1 nM.
For `C[C@@H](Nc1cncc(-c2c[nH]c3ncc(C4=CCCOC4)cc23)n1)C(=O)NCC(F)(F)F` [Example 15-16, N^2-{6-[5-(5,6-dihydro-2H-pyran-3-yl)-1H-pyrrolo[2,3-b]pyridin-3-yl]pyrazin-2-yl}-N-(2,2,2-trifluoroethyl)-D-alaninamide], the IC50 is at most 1 nM.

Staying with this assay, now noted: recombinant purified GST-tagged catalytic domain, HTRF format, [ATP] 1.7 μM; read-out: rhJAK3 IC50.
As to `O=C(NCC(F)(F)F)C1=C(c2cncc(-c3c[nH]c4ncc(Cl)cc34)n2)CCC1` [Example 10-1, 2-[6-(5-chloro-1H-pyrrolo[2,3-b]pyridin-3-yl)pyrazin-2-yl]-N-(2,2,2-trifluoroethyl)cyclopent-1-ene-1-carboxamide], the IC50 is 1 to 10 nM.
On the same count and under the same terms, the result for `C[C@@H](Nc1cncc(-c2c[nH]c3ncc(Cl)cc23)n1)C(=O)NCC(=O)NC1CCCC1` [Example 2-16, N-[6-(5-chloro-1H-pyrrolo[2,3-b]-pyridin-3-yl)pyrazin-2-yl]-D-alanyl-N-cyclopentylglycinamide] reads 100 to 1000 nM; that for `C[C@H](Nc1cncc(-c2c[nH]c3ncc(Cl)cc23)n1)C(=O)NCC(C)(C)C` [Example 2-24, N^2-[6-(5-chloro-1H-pyrrolo[2,3-b]-pyridin-3-yl)pyrazin-2-yl]-N-(2,2-dimethylpropyl)-L-alaninamide], 100 to 1000 nM; that for `C[C@H](Nc1cncc(-c2c[nH]c3ncc(Cl)cc23)n1)C(=O)N1CCOCC1` [Example 2-2, 6-(5-chloro-1H-pyrrolo[2,3-b]-pyridin-3-yl)-N-[(1S)-1-methyl-2-morpholin-4-yl-2-oxoethyl]pyrazin-2-amine], 100 to 1000 nM.
Consider `C[C@@H](Nc1cncc(-c2c[nH]c3ncc(Cl)cc23)n1)C(=O)NC1CCCCNC1=O` (stereo partly drawn) [Example 2-13, N^2-[6-(5-chloro-1H-pyrrolo[2,3-b]-pyridin-3-yl)pyrazin-2-yl]-N-(2-oxoazepan-3-yl)-D-alaninamide], for which the IC50 fell in the range of 100 to 1000 nM.
On the same count and under the same terms, under `C[C@H](Nc1cncc(-c2c[nH]c3ncc(Cl)cc23)n1)C(=O)NCC#N` [Example 2-1, N^2-[6-(5-chloro-1H-pyrrolo[2,3-b]-pyridin-3-yl)pyrazin-2-yl]-N-(cyanomethyl)-L-alaninamide] stands 10 to 100 nM; under `O=C(NCC(F)(F)F)[C@H]1CC[C@H](Nc2cncc(-c3c[nH]c4ncc(Cl)cc34)n2)C1` [Example 1-4, (1S,3S)-3-{[6-(5-chloro-1H-pyrrolo[2,3-b]pyridin-3-yl)-pyrazin-2-yl]amino}-N-(2,2,2-trifluoroethyl)cyclopentane-carboxamide], 10 to 100 nM; under `C[C@@H](Nc1cncc(-c2c[nH]c3ncc(Cl)cc23)n1)C(=O)N1CCN(CC(F)(F)F)CC1` [Example 2-19, 6-(5-chloro-1H-pyrrolo[2,3-b]-pyridin-3-yl)-N-{(1R)-1-methyl-2-oxo-2-[4-(2,2,2-trifluoroethyl)-piperazin-1-yl]ethyl}pyrazin-2-amine], 100 to 1000 nM.

For the origin of these results see US20130040933A1, “AZAINDOLES AS JANUS KINASE INHIBITORS” (priority 2010, published 2013).
